Test results as given in patent US20220411381A1, “PYRIMIDINEDIONE DERIVATIVES” (Bayer Aktiengesellschaft, priority 2019, published 2022).
pIC50: −log10 of the molar value. Like-named read-outs stand apart in the source and are kept apart here.

Experiments:
[1] = target: T1, recombinant human BCAT1 enzyme (Homo sapiens, UniProt P54687); assay: In vitro assay 1a: BCAT1 biochemical assay (coupled LeuDH/NADH fluorescence readout); conditions: read-out: BCAT1 IC50
T1 construct: purchased ATGen (South Korea) ATGP1479
T1 sequence (P54687 1-386): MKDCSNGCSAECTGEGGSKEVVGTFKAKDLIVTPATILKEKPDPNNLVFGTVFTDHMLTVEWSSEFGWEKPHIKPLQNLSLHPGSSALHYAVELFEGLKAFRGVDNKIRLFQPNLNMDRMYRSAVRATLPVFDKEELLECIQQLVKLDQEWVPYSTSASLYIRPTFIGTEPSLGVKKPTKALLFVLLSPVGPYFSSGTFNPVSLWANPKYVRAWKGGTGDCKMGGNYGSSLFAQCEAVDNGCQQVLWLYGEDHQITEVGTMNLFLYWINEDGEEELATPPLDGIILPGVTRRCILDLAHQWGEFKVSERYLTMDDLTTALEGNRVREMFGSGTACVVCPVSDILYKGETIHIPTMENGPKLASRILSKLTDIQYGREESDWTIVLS
Description: (§1) In Vitro Assay 1a and 1b: BCAT1 and BCAT2 Biochemical Assay
(§2) BOAT (Branched chain amino acid transferase) catalyzes transamination of the branched chain amino acid leucine to α-ketoisocaproate (KIC). The BOAT enzymatic reaction was measured in a coupled readout with leucine dehydrogenase (LeuDH) which catalyzes the Nicotinamide adenine dinucleotide (NADH) dependent reduction of KIC to leucine. NADH consumption is measured by fluorescent readout.
(§3) The biochemical reactions were performed at 32° C. in 384-well plates using a reaction volume of 51 μl and the following assay buffer conditions: 50 mM HEPES (2-[4-(2-hydroxyethyl)piperazin-1-yl]ethanesulfonic acid) pH 8.0, 50 mM aqueous solution of ammonium sulfate, 1 mM ethylenediaminetetraacetic acid, 2 mM dithiothreitol, 0.01% bovine serum albumine, 0.005% Brij 35 detergent, 0.5 μM PLP (pyridoxalphosphate), 10 μM NADH, and 50 μM α-ketoglutarate), and 100 μM leucine. […] Test compounds were used in a concentration range between 0.005 and 30 μM. The final DMSO concentration was 2%.
(§4) The reaction was initiated by addition of substrates (Leucine, α-KG, NADH).

[2] = target: T2, recombinant human BCAT2 enzyme (Homo sapiens, UniProt O15382); assay: In vitro assay 1b: BCAT2 biochemical assay (coupled LeuDH/NADH fluorescence readout); conditions: recombinant human BCAT2 […], 32° C., 100 μM leucine, 50 μM α-ketoglutarate, NADH fluorescence over 90 min; read-out: BCAT2 IC50; note: recombinant human BCAT2 0.75 nM
T2 construct: purchased ATGen (South Korea) ATGP1523
T2 sequence (O15382 28-392): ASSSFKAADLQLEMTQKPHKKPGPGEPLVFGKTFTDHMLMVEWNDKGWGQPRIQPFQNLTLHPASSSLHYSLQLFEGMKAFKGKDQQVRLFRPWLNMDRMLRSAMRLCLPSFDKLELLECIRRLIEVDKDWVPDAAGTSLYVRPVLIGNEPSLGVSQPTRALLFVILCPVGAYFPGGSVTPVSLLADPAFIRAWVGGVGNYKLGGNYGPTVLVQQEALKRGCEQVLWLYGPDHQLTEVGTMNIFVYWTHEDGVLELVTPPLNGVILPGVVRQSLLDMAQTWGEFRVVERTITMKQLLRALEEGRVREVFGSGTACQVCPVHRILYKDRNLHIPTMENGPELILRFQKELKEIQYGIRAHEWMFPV
Description: as §1, §2, §3, §4

[3] = recombinant human BCAT1 […], 32° C., 100 μM leucine, 50 μM α-ketoglutarate, NADH fluorescence over 90 min

Compound | pIC50 [2] | pIC50 [1, 3] | pIC50 [1]
4-[4-(Methanesulfonyl)-2,6-dioxo-3,6-dihydropyrimidin-1(2H)-yl]-5-methoxy-2-(2-methylphenoxy)benzonitrile (atrop 2) [Example 81] |  |  | 5.60
Cc1ccccc1Oc1cc(-n2c(=O)cc(C(F)(F)F)[nH]c2=O)c(Cl)cc1C#N (racemic) [Example 11, 5-Chloro-4-[2,6-dioxo-4-(trifluoromethyl)-3,6-dihydropyrimidin-1(2H)-yl]-2-(2-methylphenoxy)benzonitrile (rac)] | 5.70 |  | 
Cc1cccc(C)c1Oc1cc(-n2c(=O)cc(C(F)(F)F)[nH]c2=O)c(Cl)cc1C#N (racemic) [Example 38, 5-Chloro-2-(2,6-dimethylphenoxy)-4-(2,6-dioxo-4-(trifluoromethyl)-2,3-dihydropyrimidin-1(6H)-yl)benzonitrile (rac)] | 5.78 | 6.55 | 
Cc1ccccc1Oc1cc(-n2c(=O)cc(C(F)(F)c3ccccc3)[nH]c2=O)c(Cl)cc1C#N (racemic) [Example 53, 5-Chloro-4-{4-[difluoro(phenyl)methyl]-2,6-dioxo-3,6-dihydropyrimidin-1(2H)-yl}-2-(2-methylphenoxy)benzonitrile (rac)] | 5.80 | 6.12 | 
Cc1cccc(C)c1Oc1cc(-n2c(=O)cc(C(F)(F)c3ccccc3)[nH]c2=O)c(F)cc1C#N [Example 57, 4-{4-[Difluoro(phenyl)methyl]-2,6-dioxo-3,6-dihydropyrimidin-1(2H)-yl}-2-(2,6-dimethylphenoxy)-5-fluorobenzonitrile] | 5.30 | 5.82 | 
CC(=O)c1cc(C)cc(C)c1Oc1cc(-n2c(=O)cc(C(F)(F)F)[nH]c2=O)c(F)cc1C#N [Example 58, 2-(2-Acetyl-4,6-dimethylphenoxy)-4-[2,6-dioxo-4-(trifluoromethyl)-3,6-dihydropyrimidin-1(2H)-yl]-5-fluorobenzonitrile] |  | 5.74 | 
Cc1ccc(C)c(Oc2cc(-n3c(=O)cc(C(F)(F)F)[nH]c3=O)c(F)cc2C#N)c1C [Example 60, 4-[2,6-Dioxo-4-(trifluoromethyl)-3,6-dihydropyrimidin-1(2H)-yl]-5-fluoro-2-(2,3,6-trimethylphenoxy)benzonitrile] |  | 5.12 | 
Cc1cc(Cl)cc(C)c1Oc1cc(-n2c(=O)cc(C(F)(F)F)[nH]c2=O)c(F)cc1C#N [Example 61, 2-(4-Chloro-2,6-dimethylphenoxy)-4-[2,6-dioxo-4-(trifluoromethyl)-3,6-dihydropyrimidin-1(2H)-yl]-5-fluorobenzonitrile] |  | 5.60 | 
Cc1cc(C)c(Oc2cc(-n3c(=O)cc(C(F)(F)F)[nH]c3=O)c(F)cc2C#N)c(C)c1 [Example 62, 4-[2,6-Dioxo-4-(trifluoromethyl)-3,6-dihydropyrimidin-1 (2H)-yl]-5-fluoro-2-(2,4,6-trimethylphenoxy)benzonitrile] |  | 5.60 | 
N#Cc1cc(F)c(-n2c(=O)cc(C(F)(F)F)[nH]c2=O)cc1Oc1c(N)cccc1F [Example 64, 2-(2-Amino-6-fluorophenoxy)-4-[2,6-dioxo-4-(trifluoromethyl)-3,6-dihydropyrimidin-1(2H)-yl]-5-fluorobenzonitrile] | 5.59 | 6.53 | 
Cc1cccc(Oc2cc(-n3c(=O)cc(C(F)(F)F)[nH]c3=O)c(F)cc2C#N)c1C [Example 67, 2-(2,3-Dimethylphenoxy)-4-[2,6-dioxo-4-(trifluoromethyl)-3,6-dihydropyrimidin-1(2H)-yl]-5-fluorobenzonitrile] |  | 5.29 | 

Second part, led by results:

pIC50 [2] | pIC50 [1, 3] | Compound | pIC50 [1]
5.59 | 6.70 | Cc1ccccc1Oc1cc(-n2c(=O)cc(C(F)(F)F)[nH]c2=O)c(Br)cc1C#N (racemic) [Example 18, 5-Bromo-4-[2,6-dioxo-4-(trifluoromethyl)-3,6-dihydropyrimidin-1(2H)-yl]-2-(2-methylphenoxy)benzonitrile (rac)] | 
 | 6.82 | COc1cc(C#N)c(Oc2ccccc2C)cc1-n1c(=O)cc(C(F)F)[nH]c1=O (racemic) [Example 22, 4-[4-(Difluoromethyl)-2,6-dioxo-3,6-dihydropyrimidin-1(2H)-yl]-5-methoxy-2-(2-methylphenoxy)benzonitrile (rac)] | 
6.22 | 6.84 | COc1cc(C#N)c(Oc2ccccc2C)cc1-n1c(=O)cc(C(F)(F)c2ccccc2)[nH]c1=O (racemic) [Example 24, 4-{4-[Difluoro(phenyl)methyl]-2,6-dioxo-3,6-dihydropyrimidin-1(2H)-yl}-5-methoxy-2-(2-methylphenoxy)benzonitrile (rac)] | 
5.89 | 6.70 | COc1cc(C#N)c(Oc2ccccc2C)cc1-n1c(=O)cc(C(F)(F)Cl)[nH]c1=O (racemic) [Example 25, 4-{4-[Chloro(difluoro)methyl]-2,6-dioxo-3,6-dihydropyrimidin-1(2H)-yl}-5-methoxy-2-(2-methylphenoxy)benzonitrile (rac)] | 
5.66 | 6.57 | Cc1ccccc1Oc1cc(-n2c(=O)cc(C(F)(F)Cl)[nH]c2=O)c(Cl)cc1C#N (racemic) [Example 26, 5-Chloro-4-{4-[chloro(difluoro)methyl]-2,6-dioxo-3,6-dihydropyrimidin-1(2H)-yl}-2-(2-methylphenoxy)benzonitrile (rac)] | 
5.36 |  | COc1cc(C#N)c(Oc2ccccc2C)cc1-n1c(=O)cc(C(F)(F)C(F)(F)F)[nH]c1=O (racemic) [Example 51, 4-[2,6-Dioxo-4-(pentafluoroethyl)-3,6-dihydropyrimidin-1(2H)-yl]-5-methoxy-2-(2-methylphenoxy)benzonitrile (rac)] | 
4.81 | 5.74 | Cc1ccccc1Oc1cc(-n2c(=O)cc(C(F)(F)F)[nH]c2=O)c(O)cc1C#N (racemic) [Example 54, 4-[2,6-Dioxo-4-(trifluoromethyl)-3,6-dihydropyrimidin-1(2H)-yl]-5-hydroxy-2-(2-methylphenoxy)benzonitrile (rac)] | 
5.70 |  | Cc1ccccc1Oc1cc(-n2c(=O)cc(C(F)(F)F)[nH]c2=O)c(Cl)cc1C#N (single isomer, unassigned) [Example 13, 5-Chloro-4-[2,6-dioxo-4-(trifluoromethyl)-3,6-dihydropyrimidin-1(2H)-yl]-2-(2-methylphenoxy)benzonitrile (atrop 2)] | 
 | 4.72 | COc1cc(C#N)c(Oc2ccccc2Cl)cc1-n1c(=O)cc(C(F)(F)F)[nH]c1=O (single isomer, unassigned) [Example 17, 2-(2-Chlorophenoxy)-4-[2,6-dioxo-4-(trifluoromethyl)-3,6-dihydropyrimidin-1(2H)-yl]-5-methoxybenzonitrile (atrop 2)] | 
5.52 | 6.84 | COc1cc(C#N)c(Oc2ccccc2C)cc1-n1c(=O)cc(Br)[nH]c1=O (single isomer, unassigned) [Example 21, 4-[4-Bromo-2,6-dioxo-3,6-dihydropyrimidin-1(2H)-yl]-5-methoxy-2-(2-methylphenoxy)benzonitrile (atrop 2)] | 
 | 5.26 | COc1cc(C#N)c(Oc2ccccc2C)cc1-n1c(=O)cc(-c2ccccc2)[nH]c1=O (single isomer, unassigned) [Example 43, 4-(2,6-Dioxo-4-phenyl-3,6-dihydropyrimidin-1(2H)-yl)-5-methoxy-2-(2-methylphenoxy)benzonitrile (atrop 1)] | 
5.19 | 6.26 | COc1cc(C#N)c(Oc2ccccc2C)cc1-n1c(=O)cc(-c2ccccc2)[nH]c1=O (single isomer, unassigned) [Example 44, 4-(2,6-Dioxo-4-phenyl-3,6-dihydropyrimidin-1(2H)-yl)-5-methoxy-2-(2-methylphenoxy)benzonitrile (atrop 2)] | 
5.60 | 6.52 | COc1cc(C#N)c(Oc2ccccc2C)cc1-n1c(=O)cc(S(C)(=O)=O)[nH]c1=O (single isomer, unassigned) [Example 80, 4-[4-(Methanesulfonyl)-2,6-dioxo-3,6-dihydropyrimidin-1(2H)-yl]-5-methoxy-2-(2-methylphenoxy)benzonitrile (atrop 1)] | 
